The values that follow come from patent publication US8299091B2, “Aminoisoquinoline thrombin inhibitor with improved bioavailability” (MSD Oss B.V., priority 2006, dated 2012).

Where a name gives a salt, the structure may show the parent alone. Read-outs that look alike come from different tables or passages of the source.

In one data set the target is T1, human α-thrombin (Homo sapiens, UniProt P00734).
T1 construct: human α-thrombin
In words: Assay of thrombin activity (chromogenic substrate S-2238). The format is biochemical. The following applies: for IC50: 10 min pre-incubation at 37° C, substrate S-2238; for Ki: Hanes-Woolf analysis, S-2238 concentration varied. How it is done: Thrombin inhibitory activity was assessed by pre-incubating the test compound at a variety of concentrations with human α-thrombin at 37° C. After 10 min, the chromogenic substrate H-D-Phe-Pipecolinyl-Arg-ρ-nitroanilide (S-2238) was added to the mixture and the change in absorbance measured over the following 8 min.

A short description of data set [1]: Determination of bioavailability / pharmacokinetics in rats. The following applies: male, Wistar Ola, plasma, rat. The format is in vivo.
Test in data set [2]: as above
The format is in vivo. The following applies: male, Wistar Ola, plasma, rat, saline; for half-life: read-out: T½ (converted); for Vd: read-out: Vss. An excerpt: Determination of Bioavailability of Compounds 1A, 2A and 3A in Rats
Male Wistar Ola rats (˜250 g). Food and water were available ad libitum throughout the studies.
For intravenous pharmacokinetic studies, catheters (Portex polythene—ID 0.58 mm, OD 0.96 mm with a tip made from SF Medical silicone tubing, SFM1-1350) were inserted into the right jugular vein under isoflurane anaesthesia. The tubing was exteriorised at the back of the neck, filled with heparinised saline (100 Um/ml) and stoppered. Animals were allowed a minimum of 48 h recovery before dosing.
Compounds 1A, 2A and 3A were administered orally (PO). Compounds 1B, 2B and 3B were administered intravenously (IV). Serial blood samples (for plasma) were taken from a lateral vein at points from 3 min to 24 hrs (terminal sample by cardiac puncture) according to a matrix design protocol (3 samples per time point). Plasma samples were stored at −20° C. until analysis.
Plasma samples were analyzed for the pertinent free acid thrombin derivatives 1B, 2B and 3B using an LC-MS method. Cmax (maximum plasma concentrations) and AUC values were determined from the mean plasma concentration—time profiles.
Noncompartmental pharmacokinetic analysis was performed using WinNonlin Professional 3.1 and 4.1.

The mark [3] stands for this setting: PO 10 mg/kg of the free acid itself, saline.
Setting [4] is: IV 5 mg/kg, mean of two studies.

In general, IC50 refers to the midpoint of a concentration-inhibition curve. Higher therefore signals weaker potency. What is called Ki is a dissociation constant, usually derived from enzyme kinetics or from competition with a known ligand. As usually defined, the bioavailability is dose-corrected exposure relative to a reference, in per cent. One may read the AUC as the area under the concentration-time curve, a measure of exposure. A high value points to high exposure. As a reminder, the Cmax is the highest concentration seen after dosing. By Tmax is commonly meant the time at which the peak concentration occurs. What is called clearance is a measure of how efficiently the substance is removed, as volume per time. On to `Cl.Nc1nccc2cc(CNC(=O)[C@@H]3CCCN3C(=O)[C@H](NCC(=O)O)C(c3ccccc3)c3ccccc3)ccc12` [Compound 1B, N-(carboxymethyl)-β-phenyl-D-phenylalanyl-N-[(1-amino-6-isoquinolyl)methyl]-L-prolinamide hydrochloride], for which, at human α-thrombin, it took 12.6 nM to reach half-maximal inhibition (IC50) and the affinity corresponds to a Ki of 0.9 nM. Further, the bioavailability in data set [1] (PO 10 mg/kg of the free acid itself vs IV) is 1.3%. Further, in data set [1] (setting [3]), the AUC is 119 ng·h/mL, the Cmax was determined as 35 ng/mL and the Tmax was determined as 1.2 h. Further, in data set [2] (setting [4]), the AUC was 4860 ng·h/mL, the clearance was determined as 17 mL/min/kg, the half-life is 19.2 min and the Vd amounted to 0.48 L/kg.
Take `COc1ccc(C[C@@H](NCC(=O)O)C(=O)N2CCC[C@H]2C(=O)NCc2ccc3c(N)nccc3c2)cc1` [Compound 3B, N-(carboxymethyl)-O-methyl-D-tyrosinyl-N-[(1-amino-6-isoquinolyl)methyl]-L-prolinamide trifluoroacetate]: on human α-thrombin, the IC50 amounted to 358 nM and the Ki stood at 5.4 nM. In addition, in data set [2] (IV 2 mg/kg), the AUC came to 1010 ng·h/mL, the clearance worked out at 34 mL/min/kg, the half-life was 9.6 min and the Vd is 0.46 L/kg.
At human α-thrombin, `CCCOC(=O)CN[C@@H](C(=O)N1CCC[C@H]1C(=O)NCc1ccc2c(N)nccc2c1)C(c1ccccc1)c1ccccc1` [Compound 1A, N-(2-oxo-2-propoxyethyl)-β-phenyl-D-phenylalanyl-N-[(1-amino-6-isoquinolinyl)methyl]-L-prolinamide] yielded an IC50 of 13 nM and a Ki of 1 nM.
The matching figures for `CCCOC(=O)CN[C@H](Cc1ccccc1)C(=O)N1CCC[C@H]1C(=O)NCc1ccc2c(N)nccc2c1` [Compound 2A, N-(2-propoxy-2-oxoethyl)-D-phenylalanyl-N-[(1-amino-6-isoquinolyl)methyl]-L-prolinamide hydrochloride]: 573 nM and 34.5 nM.
Consider `CCCOC(=O)CN[C@H](Cc1ccc(OC)cc1)C(=O)N1CCC[C@H]1C(=O)NCc1ccc2c(N)nccc2c1` [Compound 3A, N-(2-propoxy-2-oxoethyl)-O-methyl-D-tyrosinyl-N-[(1-amino-6-isoquinolyl)methyl]-L-prolinamide hydrochloride], for which, at human α-thrombin, half-maximal inhibition (IC50) required 197 nM and the inhibition constant (Ki) was 1.8 nM.
In the case of `Nc1nccc2cc(CNC(=O)[C@@H]3CCCN3C(=O)[C@@H](Cc3ccccc3)NCC(=O)O)ccc12` [Compound 2B, N-(carboxymethyl)-D-phenylalanyl-N-[(1-amino-6-isoquinolyl)methyl]-L-prolinamide trifluoroacetate], in data set [2] (IV 2 mg/kg), the AUC is 659 ng·h/mL, the clearance was determined as 54 mL/min/kg, the half-life was 36.6 min and the Vd stood at 2.4 L/kg.
